Laboratory results from patent US20080261310A1, “IN VITRO ROOTING OF HOODIA PLANTS” (CONOPCO, INC., D/B/A/ UNILEVER, priority 2007, published 2008).

Test system: Hoodia explants
Test: In vitro rooting of Hoodia explants on rooting media (basal salts, phytohormones, charcoal)
Format: cell-based
Settings: experiment 11 medium with just IBA or just NAA alone
Method: The explants are placed onto rooting medium 1-2 cm deep in the medium in an erect position. The distance between the explants is the same as for the multiplication phase, although they may be placed closer (i.e. about 0.5-1 cm apart), as they are no longer producing new shoots. The rooted plans are kept in the rooting medium under conditions of darkness at temperature of 26±2° C., typically for about 2-3 weeks, and later are placed under light until roots develop before going into the greenhouse for hardening. In all the multiplication and later rooting trials, the experiments were carried out in a randomised factorial design with at least four replicates per treatment. The student's t-test was used to determine significant difference between the phytohormone treatments. P values ≦0.05 was considered significant. This example investigated various concentrations basal salt medium, vitamins (those in M&S medium, always included at full strength), and various phytohormones on rooting. Each experiment was replicated four times and statistical analysis has been carried out as described above.

Compound: O=C(O)CCCc1c[nH]c2ccccc12 [IBA, indole-3-butyric acid]
- root formation when experiment 11 was repeated with a single auxin: no roots could be obtained

Compound: O=C(O)Cc1cccc2ccccc12 [NAA, α-naphthalene acetic acid]
- root formation when experiment 11 was repeated with a single auxin: no roots could be obtained
